# Experimental data: PubChem BioAssay (NCI)
#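 Five concentrations, 48 hours, 96-well plates. TGI: concentration producing complete growth inhibition.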
# Columns and labels:
# Experiment in all cases: NCI tumour cell line growth inhibition, 48 h
# 786-0 renal = test system: 786-0 renal
# A498 renal = test system: A498 renal
# A549 NSCLC = test system: A549 NSCLC
# ACHN renal = test system: ACHN renal
# CAKI-1 renal = test system: CAKI-1 renal
# CCRF-CEM leukemia = test system: CCRF-CEM leukemia
# COLO 205 colon = test system: COLO 205 colon
# DLD-1 colon = test system: DLD-1 colon
# DMS 273 small cell lung = test system: DMS 273 small cell lung
# HCC-2998 colon = test system: HCC-2998 colon
# HCT-15 colon = test system: HCT-15 colon
# HL-60(TB) leukemia = test system: HL-60(TB) leukemia
# HOP-18 NSCLC = test system: HOP-18 NSCLC
# HOP-62 NSCLC = test system: HOP-62 NSCLC
# HOP-92 NSCLC = test system: HOP-92 NSCLC
# HT29 colon = test system: HT29 colon
# IGROV1 ovarian = test system: IGROV1 ovarian
# K-562 leukemia = test system: K-562 leukemia
# KM12 colon = test system: KM12 colon
# KM20L2 colon = test system: KM20L2 colon
# LOX IMVI melanoma = test system: LOX IMVI melanoma
# LXFL 529 NSCLC = test system: LXFL 529 NSCLC
# M14 melanoma = test system: M14 melanoma
# M19-MEL melanoma = test system: M19-MEL melanoma
# MALME-3M melanoma = test system: MALME-3M melanoma
# MOLT-4 leukemia = test system: MOLT-4 leukemia
# NCI-H226 lung = test system: NCI-H226 lung
# NCI-H23 lung = test system: NCI-H23 lung
# NCI-H460 lung = test system: NCI-H460 lung
# OVCAR-3 ovarian = test system: OVCAR-3 ovarian
# OVCAR-4 ovarian = test system: OVCAR-4 ovarian
# OVCAR-5 ovarian = test system: OVCAR-5 ovarian
# RPMI-8226 leukemia = test system: RPMI-8226 leukemia
# RXF 393 renal = test system: RXF 393 renal
# SF-268 CNS = test system: SF-268 CNS
# SF-295 CNS = test system: SF-295 CNS
# SF-539 CNS = test system: SF-539 CNS
# SK-MEL-2 melanoma = test system: SK-MEL-2 melanoma
# SK-MEL-28 melanoma = test system: SK-MEL-28 melanoma
# SK-MEL-5 melanoma = test system: SK-MEL-5 melanoma
# SK-OV-3 ovarian = test system: SK-OV-3 ovarian
# SN12C renal = test system: SN12C renal
# SNB-75 CNS = test system: SNB-75 CNS
# SNB-78 CNS = test system: SNB-78 CNS
# SW-620 colon = test system: SW-620 colon
# U251 CNS = test system: U251 CNS
# UACC-257 melanoma = test system: UACC-257 melanoma
# UACC-62 melanoma = test system: UACC-62 melanoma
# UO-31 renal = test system: UO-31 renal
# XF 498 CNS = test system: XF 498 CNS
# DMS 114 small cell lung = test system: DMS 114 small cell lung
# EKVX NSCLC = test system: EKVX NSCLC
# HCT-116 colon = test system: HCT-116 colon
# NCI-H522 lung = test system: NCI-H522 lung
# OVCAR-8 ovarian = test system: OVCAR-8 ovarian
# SNB-19 CNS = test system: SNB-19 CNS
# TK-10 renal = test system: TK-10 renal
# SR leukemia = test system: SR leukemia
structure (smiles),measurement,setting,value
O=C(OCc1ccccc1)N1N=NC2C1C1CC(OCc3ccccc3)(OCc3ccccc3)C2O1 (configuration not stated),TGI,786-0 renal,> 100 µM
same,TGI,A498 renal,> 100 µM
same,TGI,A549 NSCLC,> 100 µM
same,TGI,ACHN renal,> 100 µM
same,TGI,CAKI-1 renal,> 100 µM
same,TGI,CCRF-CEM leukemia,> 100 µM
same,TGI,COLO 205 colon,> 100 µM
same,TGI,DLD-1 colon,> 100 µM
same,TGI,DMS 273 small cell lung,> 100 µM
same,TGI,HCC-2998 colon,> 100 µM
same,TGI,HCT-15 colon,> 100 µM
same,TGI,HL-60(TB) leukemia,> 100 µM
same,TGI,HOP-18 NSCLC,> 100 µM
same,TGI,HOP-62 NSCLC,> 100 µM
same,TGI,HOP-92 NSCLC,> 100 µM
same,TGI,HT29 colon,> 100 µM
same,TGI,IGROV1 ovarian,> 100 µM
same,TGI,K-562 leukemia,> 100 µM
same,TGI,KM12 colon,> 100 µM
same,TGI,KM20L2 colon,> 100 µM
same,TGI,LOX IMVI melanoma,> 100 µM
same,TGI,LXFL 529 NSCLC,> 100 µM
same,TGI,M14 melanoma,> 100 µM
same,TGI,M19-MEL melanoma,> 100 µM
same,TGI,MALME-3M melanoma,> 100 µM
same,TGI,MOLT-4 leukemia,> 100 µM
same,TGI,NCI-H226 lung,> 100 µM
same,TGI,NCI-H23 lung,> 100 µM
same,TGI,NCI-H460 lung,> 100 µM
same,TGI,OVCAR-3 ovarian,> 100 µM
same,TGI,OVCAR-4 ovarian,> 100 µM
same,TGI,OVCAR-5 ovarian,> 100 µM
same,TGI,RPMI-8226 leukemia,> 100 µM
same,TGI,RXF 393 renal,> 100 µM
same,TGI,SF-268 CNS,> 100 µM
same,TGI,SF-295 CNS,> 100 µM
same,TGI,SF-539 CNS,> 100 µM
same,TGI,SK-MEL-2 melanoma,> 100 µM
same,TGI,SK-MEL-28 melanoma,> 100 µM
same,TGI,SK-MEL-5 melanoma,> 100 µM
same,TGI,SK-OV-3 ovarian,> 100 µM
same,TGI,SN12C renal,> 100 µM
same,TGI,SNB-75 CNS,> 100 µM
same,TGI,SNB-78 CNS,> 100 µM
same,TGI,SW-620 colon,> 100 µM
same,TGI,U251 CNS,> 100 µM
same,TGI,UACC-257 melanoma,> 100 µM
same,TGI,UACC-62 melanoma,> 100 µM
same,TGI,UO-31 renal,> 100 µM
same,TGI,XF 498 CNS,> 100 µM
Cn1nc(-c2ccccc2)c(C(=O)/C=C/c2ccc(F)cc2)c(N2CCCC2)c1=O,TGI,786-0 renal,31.2 µM
same,TGI,A549 NSCLC,> 100 µM
same,TGI,ACHN renal,62.8 µM
same,TGI,CAKI-1 renal,61.9 µM
same,TGI,CCRF-CEM leukemia,27.8 µM
same,TGI,COLO 205 colon,32.1 µM
same,TGI,DLD-1 colon,39.4 µM
same,TGI,DMS 114 small cell lung,29.1 µM
same,TGI,DMS 273 small cell lung,83.3 µM
same,TGI,EKVX NSCLC,52.9 µM
same,TGI,HCT-116 colon,20.5 µM
same,TGI,HCT-15 colon,70 µM
same,TGI,HL-60(TB) leukemia,23.2 µM
same,TGI,HOP-18 NSCLC,31.8 µM
same,TGI,HOP-92 NSCLC,36.3 µM
same,TGI,HT29 colon,15.3 µM
same,TGI,IGROV1 ovarian,50.5 µM
same,TGI,K-562 leukemia,38.5 µM
same,TGI,KM20L2 colon,28.3 µM
same,TGI,LOX IMVI melanoma,> 100 µM
same,TGI,LXFL 529 NSCLC,32.1 µM
same,TGI,M14 melanoma,37.4 µM
same,TGI,M19-MEL melanoma,33.8 µM
same,TGI,MOLT-4 leukemia,31.3 µM
same,TGI,NCI-H23 lung,32.7 µM
same,TGI,NCI-H460 lung,91.7 µM
same,TGI,NCI-H522 lung,20.7 µM
same,TGI,OVCAR-8 ovarian,> 100 µM
same,TGI,RPMI-8226 leukemia,30.5 µM
same,TGI,RXF 393 renal,22.1 µM
same,TGI,SF-268 CNS,51 µM
same,TGI,SF-539 CNS,28 µM
same,TGI,SK-MEL-28 melanoma,32.8 µM
same,TGI,SK-MEL-5 melanoma,26.9 µM
same,TGI,SK-OV-3 ovarian,59.1 µM
same,TGI,SN12C renal,> 100 µM
same,TGI,SNB-19 CNS,48.6 µM
same,TGI,SW-620 colon,37.1 µM
same,TGI,TK-10 renal,71.4 µM
same,TGI,U251 CNS,29.2 µM
same,TGI,UACC-62 melanoma,38.4 µM
same,TGI,XF 498 CNS,54.2 µM
C[O+]=c1cccc2ssnc1-2,TGI,786-0 renal,> 100 µM
same,TGI,A498 renal,> 100 µM
same,TGI,A549 NSCLC,> 100 µM
same,TGI,ACHN renal,> 100 µM
same,TGI,CAKI-1 renal,> 100 µM
same,TGI,CCRF-CEM leukemia,> 10 µM
same,TGI,COLO 205 colon,> 100 µM
same,TGI,DLD-1 colon,> 100 µM
same,TGI,DMS 273 small cell lung,> 100 µM
same,TGI,EKVX NSCLC,> 100 µM
same,TGI,HCC-2998 colon,> 100 µM
same,TGI,HCT-116 colon,> 100 µM
same,TGI,HCT-15 colon,> 100 µM
same,TGI,HL-60(TB) leukemia,69.6 µM
same,TGI,HOP-18 NSCLC,> 100 µM
same,TGI,HOP-62 NSCLC,> 100 µM
same,TGI,HT29 colon,> 100 µM
same,TGI,IGROV1 ovarian,> 100 µM
same,TGI,K-562 leukemia,91.6 µM
same,TGI,KM12 colon,> 100 µM
same,TGI,KM20L2 colon,> 100 µM
same,TGI,LOX IMVI melanoma,> 100 µM
same,TGI,LXFL 529 NSCLC,> 100 µM
same,TGI,M14 melanoma,> 100 µM
same,TGI,M19-MEL melanoma,69.3 µM
same,TGI,MALME-3M melanoma,> 100 µM
same,TGI,MOLT-4 leukemia,96.1 µM
same,TGI,NCI-H226 lung,> 100 µM
same,TGI,NCI-H23 lung,> 100 µM
same,TGI,NCI-H460 lung,> 100 µM
same,TGI,NCI-H522 lung,> 10 µM
same,TGI,OVCAR-3 ovarian,> 100 µM
same,TGI,OVCAR-4 ovarian,> 100 µM
same,TGI,OVCAR-5 ovarian,> 100 µM
same,TGI,OVCAR-8 ovarian,74.1 µM
same,TGI,RXF 393 renal,> 100 µM
same,TGI,SF-268 CNS,> 100 µM
same,TGI,SF-295 CNS,> 100 µM
same,TGI,SF-539 CNS,> 100 µM
same,TGI,SK-MEL-2 melanoma,> 100 µM
same,TGI,SK-MEL-28 melanoma,> 100 µM
same,TGI,SK-MEL-5 melanoma,58.7 µM
same,TGI,SK-OV-3 ovarian,> 100 µM
same,TGI,SN12C renal,> 100 µM
same,TGI,SNB-19 CNS,> 100 µM
same,TGI,SNB-75 CNS,> 100 µM
same,TGI,SNB-78 CNS,> 100 µM
same,TGI,SR leukemia,64.8 µM
same,TGI,SW-620 colon,70.6 µM
same,TGI,TK-10 renal,> 100 µM
same,TGI,U251 CNS,> 10 µM
same,TGI,UACC-257 melanoma,88.5 µM
same,TGI,UACC-62 melanoma,58.8 µM
same,TGI,UO-31 renal,98 µM
same,TGI,XF 498 CNS,43.1 µM
